According to BindingDB's records for doi:10.1046/j.1471-4159.2000.751294.x (University of California, 2000):

Test: Displacement of [3H]IMI from nicotinic acetylcholine receptor in Aphis craccivora (cowpea aphid) whole body membrane after 90 min by filter binding assay
With `O=[N+]([O-])/N=C1\NCOCN1Cc1ccc(Cl)nc1` the IC50 was 15 nM.
Compound `C/N=C(\NCc1ccc(Cl)nc1)N[N+](=O)[O-]` has an IC50 of 4.4 nM.
Work on `O=[N+]([O-])/N=C1\NCCN1Cc1cnc(Cl)s1` [IMIDACLOTHIZ] yielded an IC50 of 8.2 nM.
In the case of `O=[N+]([O-])/N=C1\NCOCN1Cc1cnc(Cl)s1` [DESMETHYLTHIAMETHOXAM], the IC50 is reported as 11 nM.
